# In patent US20240209019A1, “COMPOUNDS AND METHODS FOR TREATING HYPERKALEMIA” (ARDELYX, INC., priority 2019, published 2024):
# Molecular target: HSD2 (Homo sapiens (Human), UniProt P80365)
# Assay: HSD2 activity: cortisol conversion in human descending colon organoid monolayer cultures (Example 112)
# Conditions: for pIC50: human descending colon epithelial cultures on transwells, 30 minute pre-incubation, then 40 nM cortisol for four hours, cortisol HTRF assay
# Procedure: Human descending colon epithelial stem cells were cultured as 3D organoids in accordance with Sato et al. Gastroenterology. […] Cultures were differentiated using SBM containing ENRA and 30 nM aldosterone on day 3, and cultures were used for assay on day 6 or 7. Compounds were diluted in DMSO and serial dilutions prepared by titrating in DMSO. Compounds were then diluted into DMEM/F12. Transwell plates containing descending colon cultures were washed twice with DMEM/F12 and compound was added to the apical compartment. Cells were incubated with test compound for 30 minutes at 37° C., 5% CO2 to equilibrate across the cell membrane. A second compound plate was prepared in which the serially diluted compounds in DMSO were diluted into DMEM/F12 containing 40 nM cortisol. Following the 30 minute pre-incubation step, the apical media was aspirated and compounds diluted in DMEM/F12 with 40 nM cortisol were added to the apical side of the transwell. The plate was then incubated for four hours at 37° C., 5% CO2. Cortisol levels were measured using a cortisol HTRF assay kit as described by the manufacturer (Cisbio). Concentration-response curves were then plotted and IC50 (and pIC50) values were determined using least squares non-linear regression.
# Inhibition of HSD2 activity as measured by the inhibition of the conversion of cortisone to cortisol.
# Chain of HSD2 (P80365 whole entry): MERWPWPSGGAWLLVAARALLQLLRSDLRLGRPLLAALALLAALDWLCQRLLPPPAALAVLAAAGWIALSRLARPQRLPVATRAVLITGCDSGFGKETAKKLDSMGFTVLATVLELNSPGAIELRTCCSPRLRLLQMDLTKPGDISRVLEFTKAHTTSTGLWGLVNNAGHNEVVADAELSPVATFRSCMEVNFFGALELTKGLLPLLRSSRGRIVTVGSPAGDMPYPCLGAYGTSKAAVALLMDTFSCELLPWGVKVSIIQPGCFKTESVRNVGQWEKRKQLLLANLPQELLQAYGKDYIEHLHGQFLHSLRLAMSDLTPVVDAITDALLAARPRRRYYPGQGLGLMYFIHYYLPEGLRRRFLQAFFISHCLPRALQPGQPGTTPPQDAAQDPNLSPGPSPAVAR
Molecule,pIC50,IC50
"2-(3-((1-PEG5K-1H-1,2,3-triazol-4-yl)methoxy)-4-nitrobenzyl) 9-((5-methyl-2-oxo-1,3-dioxol-4-yl)methyl) (2S,4aS,6aS,6bR,8aR,9S,10S,12aS,12bR,14bR)-10-((2,5,8,11-tetraoxatetradecan-14-oyl)oxy)-2,4a,6a,6b,9,12a-hexamethyl-13-oxo-1,2,3,4,4a,5,6,6a,6b,7,8,8a,9,10,11,12,12a,12b,13,14b-icosahydropicene-2,9-dicarboxylate [Compound 605-2]",6.9,–
"CSCC(=O)O[C@H]1CC[C@@]2(C)[C@@H](CC[C@]3(C)[C@@H]2C(=O)C=C2[C@@H]4C[C@@](C)(C(=O)O)CC[C@]4(C)CC[C@]23C)[C@]1(C)C(=O)O [(2S,4aS,6aS,6bR,8aR,9S,10S,12aS,12bR,14bR)-2,4a,6a,6b,9,12a-hexamethyl-10-{[2-(methylsulfanyl)acetyl]oxy}-13-oxo-1,2,3,4,4a,5,6,6a,6b,7,8,8a,9,10,11,12,12a,12b,13,14b-icosahydropicene-2,9-dicarboxylic acid]",5.4,–
"CC(=O)O[C@H]1CC[C@@]2(C)[C@@H](CC[C@]3(C)[C@@H]2C(=O)C=C2[C@@H]4C[C@@](C)(C(=O)O)CC[C@]4(C)CC[C@]23C)[C@]1(C)C(=O)O [(2S,4aS,6aS,6bR,8aR,9S,10S,12aS,12bR,14bR)-10-(acetyloxy)-2,4a,6a,6b,9,12a-hexamethyl-13-oxo-1,2,3,4,4a,5,6,6a,6b,7,8,8a,9,10,11,12,12a,12b,13,14b-icosahydropicene-2,9-dicarboxylic acid]",5.9,–
"C[C@]1(C(=O)O)CC[C@]2(C)CC[C@]3(C)C(=CC(=O)[C@@H]4[C@@]5(C)CC[C@H](OC(=O)c6ccccc6)[C@@](C)(C(=O)O)[C@@H]5CC[C@]43C)[C@@H]2C1 [(2S,4aS,6aS,6bR,8aR,9S,10S,12aS,12bR,14bR)-10-(benzoyloxy)-2,4a,6a,6b,9,12a-hexamethyl-13-oxo-1,2,3,4,4a,5,6,6a,6b,7,8,8a,9,10,11,12,12a,12b,13,14b-icosahydropicene-2,9-dicarboxylic acid]",6.6,–
"C[C@]1(C(=O)O)CC[C@]2(C)CC[C@]3(C)C(=CC(=O)[C@@H]4[C@@]5(C)CC[C@H](OC(=O)C6CC6)[C@@](C)(C(=O)O)[C@@H]5CC[C@]43C)[C@@H]2C1 [(2S,4aS,6aS,6bR,8aR,9S,10S,12aS,12bR,14bR)-10-(cyclopropanecarbonyloxy)-2,4a,6a,6b,9,12a-hexamethyl-13-oxo-1,2,3,4,4a,5,6,6a,6b,7,8,8a,9,10,11,12,12a,12b,13,14b-icosahydropicene-2,9-dicarboxylic acid]",5.8,–
"COCO[C@H]1CC[C@@]2(C)[C@@H](CC[C@]3(C)[C@@H]2C(=O)C=C2[C@@H]4C[C@@](C)(C(=O)O)CC[C@]4(C)CC[C@]23C)[C@]1(C)C(=O)O [(2S,4aS,6aS,6bR,8aR,9S,10S,12aS,12bR,14bR)-10-(methoxymethoxy)-2,4a,6a,6b,9,12a-hexamethyl-13-oxo-1,2,3,4,4a,5,6,6a,6b,7,8,8a,9,10,11,12,12a,12b,13,14b-icosahydropicene-2,9-dicarboxylic acid]",5.1,–
"CCOC(=O)c1cnn([C@H]2CC[C@@]3(C)[C@@H](CC[C@]4(C)[C@@H]3C(=O)C=C3[C@@H]5C[C@@](C)(C(=O)O)CC[C@]5(C)CC[C@]34C)[C@]2(C)C(=O)O)c1OC [(2S,4aS,6aS,6bR,8aR,9S,10S,12aS,12bR,14bR)-10-[4-(ethoxycarbonyl)-5-methoxy-1H-pyrazol-1-yl]-2,4a,6a,6b,9,12a-hexamethyl-13-oxo-1,2,3,4,4a,5,6,6a,6b,7,8,8a,9,10,11,12,12a,12b,13,14b-icosahydropicene-2,9-dicarboxylic acid]",5.6,–
"C[C@]1(C(=O)O)CC[C@]2(C)CC[C@]3(C)C(=CC(=O)[C@@H]4[C@@]5(C)CC[C@H](OC(=O)CO)[C@@](C)(C(=O)O)[C@@H]5CC[C@]43C)[C@@H]2C1 [(2S,4aS,6aS,6bR,8aR,9S,10S,12aS,12bR,14bR)-10-[(2-hydroxyacetyl)oxy]-2,4a,6a,6b,9,12a-hexamethyl-13-oxo-1,2,3,4,4a,5,6,6a,6b,7,8,8a,9,10,11,12,12a,12b,13,14b-icosahydropicene-2,9-dicarboxylic acid]",5.9,–
"CC1(C)[C@@H](C(=O)O)CC[C@]2(C)[C@H]3C(=O)C=C4[C@@H]5C[C@@](C)(C(=O)O)CC[C@]5(C)CC[C@@]4(C)[C@]3(C)CC[C@@H]12 [(2S,4aS,6aS,6bR,8aS,10S,12aS,12bR,14bR)-2,4a,6a,6b,9,9,12a-heptamethyl-13-oxo-1,2,3,4,4a,5,6,6a,6b,7,8,8a,9,10,11,12,12a,12b,13,14b-icosahydropicene-2,10-dicarboxylic acid]",5.5,–
"CC1(C)[C@@H](OCC(=O)O)CC[C@]2(C)[C@H]3C(=O)C=C4[C@@H]5C[C@@](C)(C(=O)O)CC[C@]5(C)CC[C@@]4(C)[C@]3(C)CC[C@@H]12 [Compound 78-2, (2S,4aS,6aS,6bR,8aR,10S,12aS,12bR,14bR)-10-(Carboxymethoxy)-2,4a,6a,6b,9,9,12a-heptamethyl-13-oxo-1,2,3,4,4a,5,6,6a,6b,7,8,8a,9,10,11,12,12a,12b,13,14b-icosahydropicene-2-carboxylic acid]",5.4,–
"Cc1oc(=O)oc1COC(=O)[C@H]1CC[C@]2(C)[C@H]3C(=O)C=C4[C@@H]5C[C@@](C)(C(=O)O)CC[C@]5(C)CC[C@@]4(C)[C@]3(C)CC[C@H]2C1(C)C [Compound 176-2, (2S,4aS,6aS,6bR,8aS,10S,12aS,12bR,14bR)-2,4a,6a,6b,9,9,12a-Heptamethyl-10-(((5-methyl-2-oxo-1,3-dioxol-4-yl)methoxy)carbonyl)-13-oxo-1,2,3,4,4a,5,6,6a,6b,7,8,8a,9,10,11,12,12a,12b,13,14b-icosahydropicene-2-carboxylic acid]",6.3,–
"CC1OC(=O)OC1COC(=O)[C@H]1CC[C@]2(C)[C@H]3C(=O)C=C4[C@@H]5C[C@@](C)(C(=O)O)CC[C@]5(C)CC[C@@]4(C)[C@]3(C)CC[C@H]2C1(C)C (stereo partly drawn) [Compound 178-1, (2S,4aS,6aS,6bR,8aS,10S,12aS,12bR,14bR)-2,4a,6a,6b,9,9,12a-Heptamethyl-10-(((5-methyl-2-oxo-1,3-dioxolan-4-yl)methoxy)carbonyl)-13-oxo-1,2,3,4,4a,5,6,6a,6b,7,8,8a,9,10,11,12,12a,12b,13,14b-icosahydropicene-2-carboxylic acid]",6.3,–
"COCCOCCOCCOCCC(=O)O[C@H]1CC[C@@]2(C)[C@@H](CC[C@]3(C)[C@@H]2C(=O)C=C2[C@@H]4C[C@@](C)(C(=O)O)CC[C@]4(C)CC[C@]23C)[C@]1(C)C(=O)O [Compound 190-3, (2S,4aS,6aS,6bR,8aR,9S,10S,12aS,12bR,14bR)-10-((2,5,8,11-tetraoxatetradecan-14-oyl)oxy)-2,4a,6a,6b,9,12a-hexamethyl-13-oxo-1,2,3,4,4a,5,6,6a,6b,7,8,8a,9,10,11,12,12a,12b,13,14b-icosahydropicene-2,9-dicarboxylic acid]",–,> 10 µM
"CSCC(=O)O[C@H]1CC[C@@]2(C)[C@@H](CC[C@]3(C)[C@@H]2C(=O)C=C2[C@@H]4C[C@@](C)(C(=O)O)CC[C@]4(C)CC[C@]23C)[C@]1(C)C(=O)OCc1oc(=O)oc1C [Compound 194-10, (2S,4aS,6aS,6bR,8aR,9S,10S,12aS,12bR,14bR)-2,4a,6a,6b,9,12a-Hexamethyl-9-(((5-methyl-2-oxo-1,3-dioxol-4-yl)methoxy)carbonyl)-10-(2-(methylthio)acetoxy)-13-oxo-1,2,3,4,4a,5,6,6a,6b,7,8,8a,9,10,11,12,12a,12b,13,14b-icosahydropicene-2-carboxylic acid]",8,–
"Cc1oc(=O)oc1COC(=O)[C@]1(C)[C@@H](OC(=O)CS(C)(=O)=O)CC[C@@]2(C)[C@H]1CC[C@]1(C)[C@@H]2C(=O)C=C2[C@@H]3C[C@@](C)(C(=O)O)CC[C@]3(C)CC[C@]21C [Compound 195-2, (2S,4aS,6aS,6bR,8aR,9S,10S,12aS,12bR,14bR)-2,4a,6a,6b,9,12a-Hexamethyl-9-(((5-methyl-2-oxo-1,3-dioxol-4-yl)methoxy)carbonyl)-10-(2-(methylsulfonyl)acetoxy)-13-oxo-1,2,3,4,4a,5,6,6a,6b,7,8,8a,9,10,11,12,12a,12b,13,14b-icosahydropicene-2-carboxylic acid]",6.3,–
"Cc1oc(=O)oc1COC(=O)[C@]1(C)[C@@H](OC(=O)c2ccccc2)CC[C@@]2(C)[C@H]1CC[C@]1(C)[C@@H]2C(=O)C=C2[C@@H]3C[C@@](C)(C(=O)O)CC[C@]3(C)CC[C@]21C [Compound 197-2, (2S,4aS,6aS,6bR,8aR,9S,10S,12aS,12bR,14bR)-10-(Benzoyloxy)-2,4a,6a,6b,9,12a-hexamethyl-9-(((5-methyl-2-oxo-1,3-dioxol-4-yl)methoxy)carbonyl)-13-oxo-1,2,3,4,4a,5,6,6a,6b,7,8,8a,9,10,11,12,12a,12b,13,14b-icosahydropicene-2-carboxylic acid]",7.9,–
"Cc1oc(=O)oc1COC(=O)[C@]1(C)[C@@H](OC(=O)C2CC2)CC[C@@]2(C)[C@H]1CC[C@]1(C)[C@@H]2C(=O)C=C2[C@@H]3C[C@@](C)(C(=O)O)CC[C@]3(C)CC[C@]21C [Compound 198-2, (2S,4aS,6aS,6bR,8aR,9S,10S,12aS,12bR,14bR)-10-((Cyclopropanecarbonyl)oxy)-2,4a,6a,6b,9,12a-hexamethyl-9-(((5-methyl-2-oxo-1,3-dioxol-4-yl)methoxy)carbonyl)-13-oxo-1,2,3,4,4a,5,6,6a,6b,7,8,8a,9,10,11,12,12a,12b,13,14b-icosahydropicene-2-carboxylic acid]",7.7,–
"COCO[C@H]1CC[C@@]2(C)[C@@H](CC[C@]3(C)[C@@H]2C(=O)C=C2[C@@H]4C[C@@](C)(C(=O)O)CC[C@]4(C)CC[C@]23C)[C@]1(C)C(=O)OCc1oc(=O)oc1C [Compound 205-2, (2S,4aS,6aS,6bR,8aR,9S,10S,12aS,12bR,14bR)-10-(Methoxymethoxy)-2,4a,6a,6b,9,12a-hexamethyl-9-(((5-methyl-2-oxo-1,3-dioxol-4-yl)methoxy)carbonyl)-13-oxo-1,2,3,4,4a,5,6,6a,6b,7,8,8a,9,10,11,12,12a,12b,13,14b-icosahydropicene-2-carboxylic acid]",6.4,–
